Assays:
Assay type in all cases: cell-based, human
[1] = tested on: A2780cis cells; assay: Short-term (3 h) exposure, cell survival by CellTiter-Blue after 48 h in compound free media; conditions: 20 μM compound with various doses of cisplatin, viability after two days, in words
Method: FIG. 5. Short-term exposure of A2780cis cells to the combination of cisplatin and compound 1-6 dramatically reduces cell survival. A2780cis cells were treated with increasing doses of cisplatin alone or the combination of cisplatin with compound 1-6 (20 μM) for 3 h. The compounds were then washed out. Cell survival was determined after 48 h incubation of cells in compound free media by CellTiter-Blue assay.
Further analysis was performed with compound 1-6. […] This synergism for the combination of cisplatin and 1-6 was further confirmed using a fresh sample of high chemical purity (98%). This synergistic effect was also observed using the CellTiter-Blue cell viability assay (FIG. 5) under an alternative exposure strategy that mimics in viva drug administration to test the combination effect. Considering the clearance of cisplatin over the time and the duration of exposure of tumor cells to the effective doses of the drugs in vivo (Los et al., 1989), a short-term exposure of cells to the combination of 20 μM of 1-6 with various doses of cisplatin was tested, followed by cell viability assay after two days.

[2] = tested on: A2780cis cells; assay: Western blot of caspase/PARP cleavage, Noxa induction, RPA32 and H2AX phosphorylation; conditions: compound 20 μM + cisplatin 20 μM
Method: Whole cell lysate was prepared by lysing cells in cell lysis buffer (Cell signaling technology) containing complete protease inhibitor (Roche). Cell lysates were then cleared at 15,000 rpm for 15 min at 4° C. The protein content was quantified using a Bio-Rad Protein Assay kit (Bio-Rad Laboratories, Hercules, Calif.). The equal amount of protein was separated on Tris-glycine gels (Invitrogen). The separated proteins were blotted onto a polyvinylidene difluoride membrane and blocked overnight at 4° C. in phosphate-buffered saline containing 0.1% Tween 20 and 10% nonfat dry milk (blocking buffer). Membranes were incubated with primary antibodies in blocking buffer overnight at 4° C. Primary antibodies used were: β-actin from Sigma; Bax, Bak, Caspase-9 and cleaved Caspase-3 from Cell Signaling Technology; phospho-Histone H2AX (Ser 139) and Noxa from Millipore. Membranes were then washed and incubated in peroxidase conjugated anti-rabbit IgG (Sigma) or anti-mouse IgG (Sigma) secondary antibody for 1 h at room temperature. Membranes were developed using SuperSignal West Femto Maximum Sensitivity Substrate (Thermo Fisher Scientific).
A2780cis cells were treated with cisplatin alone, compounds alone or in combination with cisplatin at indicated concentrations for 20 h to analyze apoptotic cell death in response to treatment. […] Expression and cleavage of several major caspases (Caspase-8, Caspase-9 and Caspase-3), as well as poly(ADP-ribose) polymerase (PARP) and NOXA. A2780cis cells were treated with cisplatin (20 μM) alone, compounds (20 μM) alone or in combination with cisplatin for 20 h.
To determine the effects of the compounds on DNA damage and mitochondrial dysfunction, A2780cis cells were treated with cisplatin (20 μM) alone or the combination of cisplatin with 20 μM of compound 1-6. Replication protein A (RPA) is a single strand-specific DNA-binding protein, consisting of three subunits, RPA70, RPA32, and RPA14. RPA32 is phosphorylated in response to DNA replication stress. Western blot analysis was performed to evaluate the phosphorylation of RPA32 and histone H2AX, the induction of Noxa expression and cleavage of caspase-3. […] A2780cis cells were treated with cisplatin (50 μM) alone, 1-6 (50 μM) alone or the combination of cisplatin and compound 1-6 for 4 h. The oxygen consumption rate (OCR) was measured by a Seahorse extracellular flux analyzer.

[3] = tested on: A2780cis cells; assay: Extracellular flux analysis, oxygen consumption rate (OCR), Seahorse XF24; conditions: compound 50 μM + cisplatin 50 μM, 4 h, FIG. 8B; in words
Method: Oxygen consumption rate (OCR) and extracellular acidification rate (ECAR) were measured as previously described (Qian and Van Houten, 2010). Cells were seeded in XF24 cell culture plates at 4×10^4 cells/well and incubated in 5% CO2 at 37° C. Prior to the analysis, cells were washed and growth medium was replaced with bicarbonate-free modified RPMI 1640 medium, the “assay medium” (Molecular Devices, Sunnyvale, Calif.). Cells were then incubated for another 60 min in a 37° C. incubator without CO2. OCR and ECAR measurements were then performed simultaneously using a Seahorse XF24 Extracellular Flux Analyzer (Seahorse Bioscience, North Billerica, Mass.).
To determine the effects of the compounds on DNA damage and mitochondrial dysfunction, A2780cis cells were treated with cisplatin (20 μM) alone or the combination of cisplatin with 20 μM of compound 1-6. Replication protein A (RPA) is a single strand-specific DNA-binding protein, consisting of three subunits, RPA70, RPA32, and RPA14. RPA32 is phosphorylated in response to DNA replication stress. Western blot analysis was performed to evaluate the phosphorylation of RPA32 and histone H2AX, the induction of Noxa expression and cleavage of caspase-3. […] The oxygen consumption rate (OCR) was measured by a Seahorse extracellular flux analyzer.

CCOCCCn1c(=S)[nH]c2c(C)cccc2c1=O [Compound 1-6]
effect of 3 hr exposure to the combination with cisplatin on proliferation [1]: severe long-term proliferation defect | cleavage of caspases and PARP, induction of Noxa in combination with cisplatin ([2]; 20 h, FIG. 7B, in words): cleavage of Caspase-8, 9, 3, PARP and the induction of Noxa | time of enhanced phosphorylation of RPA32 post treatment, combination with cisplatin ([2]; FIG. 8A): ≤ 4 h | mitochondrial function (OCR, response to oligomycin) after combination with cisplatin [3]: uncoupling of mitochondria was observed

— patent publication US10478437B2, “Combination therapy to enhance the anticancer efficacy of platinum drugs” (University of Pittsburgh-of the Commonwealth System of …, priority 2014, dated 2019)
